The values that follow come from patent EP4603105A1, “PHARMACEUTICAL COMPOSITION CONTAINING CYCLIC COMPOUND HAVING SELECTIVE KRAS INHIBITORY EFFECT AGAINST HRAS AND NRAS” (CHUGAI SEIYAKU KABUSHIKI KAISHA, priority 2022, dated 2024).

Molecules are shown by their SMILES. pIC50: −log10 of the molar value. *1 amine or outer side, *2 acyl side, *3 side chain or, on linkers, in order; H or OH if unused. Where a SMILES comes first, the peptide text is derived from it. Bridges are numbered along the chain shown (N, C = ends). [ ]: non-standard residue; d: D form. The star is where a group is joined. hPhe(3-Cl-4-CF3) = N[C@@H](CCc1ccc(C(F)(F)F)c(Cl)c1)C(=O)O; NPrPhe(4-CF3) = CCCN[C@@H](Cc1ccc(C(F)(F)F)cc1)C(=O)O; NMeAbu(4,4,4-F3) = CN[C@@H](CC(F)(F)F)C(=O)O; X15 = CCCN([C@@H](Cc1ccccc1)C(=O)[*:2])[*:1]; NMeGly(cPent) = CN[C@H](C(=O)O)C1CCCC1; Pro(4,4-F2) = O=C(O)[C@@H]1CC(F)(F)CN1; NEtPhe = CCN[C@@H](Cc1ccccc1)C(=O)O; NMeGly(cBu) = CN[C@H](C(=O)O)C1CCC1; NMeD = CN[C@@H](CC(=O)O)C(=O)O; NMeL = CN[C@@H](CC(C)C)C(=O)O; NMeNva = CCC[C@H](NC)C(=O)O; NMeAbu = CC[C@H](NC)C(=O)O; Morpholide = C1CN(*)CCO1; NMeA = CN[C@@H](C)C(=O)O; Ac5c = NC1(C(=O)O)CCCC1; Aze = O=C(O)[C@@H]1CCN1; Ac4c = NC1(C(=O)O)CCC1; Sar = CNCC(=O)O

In assay [1] the target is GDP-bound NRAS wild-type protein (Homo sapiens, UniProt P01111). Description: Binding to NRAS by surface plasmon resonance (SPR), KD and KD ratio to KRAS. As to conditions: ratio of KD for GDP-bound NRAS wild-type protein to KD for KRAS. The method, boiled down:
(§1)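 Single-cycle kinetics on GDP-loaded biotin-Avi RAS captured to ~100–300 RU; 75 s ascending injections, 100 µL/min, 30°C. HBS pH 7.4 + 10 mM MgCl2/10 µM GDP/4% DMSO. 1:1 fit, KD.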

A further assay has as its target HRAS wild-type protein (Homo sapiens, UniProt P01112). Description: Binding to HRAS by surface plasmon resonance (SPR), KD and KD ratio to KRAS. As to conditions: ratio of KD for HRAS wild-type protein to KD for KRAS. The method, boiled down: as §1
A general note: In SPR one partner is held on a chip, and binding of the other changes the refractive index at the surface.

In assay [2] the test system is human lung cancer strain NCI-H441. The assay is classed as cell-based. The method, boiled down:
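Proliferation was scored by […] measured after the reagent was added to cultures kept at 37°C in 5% carbon dioxide.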

HRAS wild-type protein, sequence (P01112 whole entry): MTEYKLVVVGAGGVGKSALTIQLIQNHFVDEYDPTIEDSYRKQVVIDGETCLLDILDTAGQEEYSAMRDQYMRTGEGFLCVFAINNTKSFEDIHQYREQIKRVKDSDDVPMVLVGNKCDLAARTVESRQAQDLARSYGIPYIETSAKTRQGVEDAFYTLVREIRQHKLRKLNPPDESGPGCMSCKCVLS
GDP-bound NRAS wild-type protein, sequence (P01111 whole entry): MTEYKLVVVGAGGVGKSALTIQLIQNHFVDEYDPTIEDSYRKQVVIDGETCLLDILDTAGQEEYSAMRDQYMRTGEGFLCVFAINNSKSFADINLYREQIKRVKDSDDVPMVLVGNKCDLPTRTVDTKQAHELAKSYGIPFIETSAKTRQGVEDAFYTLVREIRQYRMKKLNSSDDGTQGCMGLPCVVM

By pIC50 is commonly meant the IC50 on a negative log10 scale, so that one unit is a factor of ten. On to `CCCN1C(=O)CN(C)C(=O)CN(C)C(=O)[C@H]([C@@H](C)CC)NC(=O)[C@H](CC)N(C)C(=O)C[C@@H](C(=O)N2CCOCC2)N(C)C(=O)[C@H](C2CCCC2)N(C)C(=O)C2(CCCC2)NC(=O)[C@@H]2CC(F)(F)CN2C(=O)[C@H](CCc2ccc(C(F)(F)F)c(Cl)c2)NC(=O)CN(C)C(=O)[C@@H]1Cc1ccc(C(F)(F)F)cc1` [PP0202] ([NMeAbu]I[Sar][Sar][NPrPhe(4-CF3)][Sar][hPhe(3-Cl-4-CF3)][Pro(4,4-F2)][Ac5c][NMeGly(cPent)][NMeD]-Morpholide; lactam N-11), for which the “NRAS /KRAS” value in assay [1] was “B (a compound having 3 or more and less than 10 is denoted as B)”. For the same molecule, the “HRAS /KRAS” value on HRAS wild-type protein is “C (A compound having a KD ratio of 0.1 or more and less than 3 is denoted as C)”. Further, in assay [2], the negative-log IC50 (pIC50) was 8.41.

With `CCCN1C(=O)[C@@H]2CCN2C(=O)[C@H](C)N(C)C(=O)[C@H]([C@@H](C)CC)NC(=O)[C@H](CC(F)(F)F)N(C)C(=O)C[C@@H](C(=O)N2CCOCC2)N(C)C(=O)[C@H](C2CCCC2)N(C)C(=O)C2(CCCC2)NC(=O)[C@@H]2CC(F)(F)CN2C(=O)[C@H](CCc2ccc(C(F)(F)F)c(Cl)c2)NC(=O)CN(C)C(=O)[C@@H]1Cc1ccc(C(F)(F)F)cc1` [PP0203] ([NMeAbu(4,4,4-F3)]I[NMeA][Aze][NPrPhe(4-CF3)][Sar][hPhe(3-Cl-4-CF3)][Pro(4,4-F2)][Ac5c][NMeGly(cPent)][NMeD]-Morpholide; lactam N-11), the “NRAS /KRAS” value in assay [1] was “C (A compound having a KD ratio of 0.1 or more and less than 3 is denoted as C)”. For the same molecule, the “HRAS /KRAS” value at HRAS wild-type protein was “C (A compound having a KD ratio of 0.1 or more and less than 3 is denoted as C)”. In assay [2], this molecule had a pIC50 of 8.55.

On to `CCCN1C(=O)[C@@H]2CCN2C(=O)[C@H](C)N(C)C(=O)[C@H]([C@@H](C)CC)NC(=O)[C@H](C2CCC2)N(C)C(=O)C[C@@H](C(=O)N2CCOCC2)N(C)C(=O)[C@H](C2CCCC2)N(C)C(=O)C2(CCCC2)NC(=O)[C@@H]2CC(F)(F)CN2C(=O)[C@H](CCc2ccc(C(F)(F)F)c(Cl)c2)NC(=O)CN(C)C(=O)[C@@H]1Cc1ccc(C(F)(F)F)cc1` [PP0204] ([NMeGly(cBu)]I[NMeA][Aze][NPrPhe(4-CF3)][Sar][hPhe(3-Cl-4-CF3)][Pro(4,4-F2)][Ac5c][NMeGly(cPent)][NMeD]-Morpholide; lactam N-11), for which the “NRAS /KRAS” value in assay [1] was “C (A compound having a KD ratio of 0.1 or more and less than 3 is denoted as C)”. In addition, the “HRAS /KRAS” value on HRAS wild-type protein is “C (A compound having a KD ratio of 0.1 or more and less than 3 is denoted as C)”. Also, in assay [2], the pIC50 is 8.27.

Consider `CCC[C@H]1C(=O)N[C@@H]([C@@H](C)CC)C(=O)N(C)[C@@H](C)C(=O)N2CC[C@H]2C(=O)N(CCC)[C@@H](Cc2ccc(C(F)(F)F)cc2)C(=O)N(C)CC(=O)N[C@@H](CCc2ccc(C(F)(F)F)c(Cl)c2)C(=O)N2CC(F)(F)C[C@H]2C(=O)NC2(CCCC2)C(=O)N(C)[C@@H](C2CCCC2)C(=O)N(C)[C@H](C(=O)N2CCOCC2)CC(=O)N1C` [PP0205] ([NMeNva]I[NMeA][Aze][NPrPhe(4-CF3)][Sar][hPhe(3-Cl-4-CF3)][Pro(4,4-F2)][Ac5c][NMeGly(cPent)][NMeD]-Morpholide; lactam N-11), for which the “NRAS /KRAS” value in assay [1] was “C (A compound having a KD ratio of 0.1 or more and less than 3 is denoted as C)”. Besides, the “HRAS /KRAS” value on HRAS wild-type protein was “C (A compound having a KD ratio of 0.1 or more and less than 3 is denoted as C)”. The same molecule showed a pIC50 in assay [2] of 8.34.

Turning to `CCCN1C(=O)[C@@H]2CCN2C(=O)[C@H](C)N(C)C(=O)[C@H]([C@@H](C)CC)NC(=O)[C@H](CC)N(C)C(=O)C[C@@H](C(=O)N2CCOCC2)N(C)C(=O)[C@H](C2CCCC2)N(C)C(=O)C2(CCCC2)NC(=O)[C@@H]2CC(F)(F)CN2C(=O)[C@H](CCc2ccc(C(F)(F)F)c(Cl)c2)NC(=O)CN(C)C(=O)[C@@H]1Cc1ccc(C(F)(F)F)cc1` [PP0206] ([NMeAbu]I[NMeA][Aze][NPrPhe(4-CF3)][Sar][hPhe(3-Cl-4-CF3)][Pro(4,4-F2)][Ac5c][NMeGly(cPent)][NMeD]-Morpholide; lactam N-11), the “NRAS /KRAS” value in assay [1] is “C (A compound having a KD ratio of 0.1 or more and less than 3 is denoted as C)”. Also, the “HRAS /KRAS” value at HRAS wild-type protein was “B (a compound having 3 or more and less than 10 is denoted as B)”. For the same molecule, in assay [2], the pIC50 is 8.66.

For `CCCN1C(=O)CN(C)C(=O)CN(C)C(=O)[C@H]([C@@H](C)CC)NC(=O)[C@H](CC(C)C)N(C)C(=O)C[C@@H](C(=O)N2CCOCC2)N(C)C(=O)[C@H](C2CCCC2)N(C)C(=O)C2(CCC2)NC(=O)[C@@H]2CC(F)(F)CN2C(=O)[C@H](CCc2ccc(C(F)(F)F)c(Cl)c2)NC(=O)CN(C)C(=O)[C@@H]1Cc1ccc(C(F)(F)F)cc1` [PP0207] ([NMeL]I[Sar][Sar][NPrPhe(4-CF3)][Sar][hPhe(3-Cl-4-CF3)][Pro(4,4-F2)][Ac4c][NMeGly(cPent)][NMeD]-Morpholide; lactam N-11), the “NRAS /KRAS” value in assay [1] was “B (a compound having 3 or more and less than 10 is denoted as B)”. The “HRAS /KRAS” value at HRAS wild-type protein was “C (A compound having a KD ratio of 0.1 or more and less than 3 is denoted as C)”. The molecule further showed a pIC50 in assay [2] of 8.72.

Turning to `CCCN1C(=O)[C@@H]2CCN2C(=O)[C@H](C)N(C)C(=O)[C@H]([C@@H](C)CC)NC(=O)[C@H](CC(C)C)N(C)C(=O)C[C@@H](C(=O)N2CCOCC2)N(C)C(=O)[C@H](C2CCCC2)N(C)C(=O)C2(CCC2)NC(=O)[C@@H]2CC(F)(F)CN2C(=O)[C@H](CCc2ccc(C(F)(F)F)c(Cl)c2)NC(=O)CN(C)C(=O)[C@@H]1Cc1ccc(C(F)(F)F)cc1` [PP0208] ([NMeL]I[NMeA][Aze][NPrPhe(4-CF3)][Sar][hPhe(3-Cl-4-CF3)][Pro(4,4-F2)][Ac4c][NMeGly(cPent)][NMeD]-Morpholide; lactam N-11), in assay [1], the “NRAS /KRAS” value was “C (A compound having a KD ratio of 0.1 or more and less than 3 is denoted as C)”. Also, on HRAS wild-type protein, the “HRAS /KRAS” value is “C (A compound having a KD ratio of 0.1 or more and less than 3 is denoted as C)”. The pIC50 in assay [2] was 8.34.

`CC[C@H](C)[C@@H]1NC(=O)[C@H](CC(C)C)N(C)C(=O)C[C@@H](C(=O)N2CCOCC2)N(C)C(=O)[C@H](C2CCCC2)N(C)C(=O)C2(CCCC2)NC(=O)[C@@H]2CCCN2C(=O)[C@H](CCc2ccc(C(F)(F)F)c(Cl)c2)NC(=O)CN(C)C(=O)[C@H](Cc2ccccc2)N(CC)C(=O)CN(C)C(=O)CN(C)C1=O` [PP0210] ([NMeL]I[Sar][Sar][NEtPhe][Sar][hPhe(3-Cl-4-CF3)]P[Ac5c][NMeGly(cPent)][NMeD]-Morpholide; lactam N-11): the “NRAS /KRAS” value in assay [1] is “C (A compound having a KD ratio of 0.1 or more and less than 3 is denoted as C)”. Further, the “HRAS /KRAS” value on HRAS wild-type protein was “C (A compound having a KD ratio of 0.1 or more and less than 3 is denoted as C)”. Besides, the pIC50 in assay [2] was 7.77.

With `CCCN1C(=O)CN(C)C(=O)CN(C)C(=O)[C@H]([C@@H](C)CC)NC(=O)[C@H](CC(C)C)N(C)C(=O)C[C@@H](C(=O)N2CCOCC2)N(C)C(=O)[C@H](C2CCCC2)N(C)C(=O)C2(CCCC2)NC(=O)[C@@H]2CCCN2C(=O)[C@H](CCc2ccc(C(F)(F)F)c(Cl)c2)NC(=O)CN(C)C(=O)[C@@H]1Cc1ccccc1` [PP0211] ([NMeL]I[Sar][Sar][X15][Sar][hPhe(3-Cl-4-CF3)]P[Ac5c][NMeGly(cPent)][NMeD]-Morpholide; lactam N-11), the “NRAS /KRAS” value in assay [1] is “B (a compound having 3 or more and less than 10 is denoted as B)”. Also, at HRAS wild-type protein, the “HRAS /KRAS” value was “C (A compound having a KD ratio of 0.1 or more and less than 3 is denoted as C)”. In addition, the pIC50 in assay [2] is 7.97.
